Test [1] relates to C57BL/ksj-db/db mice. Kind of test: Blood glucose levels after administration of pravastatin in feed, C57BL/ksj-db/db mice. The format is in vivo, mouse. As to conditions: pravastatin mixed in feed (0.03% and 0.06% wt/wt), dose group, non-dose group 633 mg/dl. The method, then:
(§1) C57BL/ksj-db/db mice (male, age 5 weeks) and KKAy mice (female, age 4 weeks) were purchased from Clea Japan, and used in the test after acclimating to the test environment for 1 week. The mice were housed 5 animals to a cage and given unrestricted access to feed (F2, Funabashi Farm) and water.
(§2) The body weights of the animals were measured and blood samples were collected on the day the test started, and the animals were divided into two groups of 5 animals per cage based on their body weights and blood glucose levels. Blood samples were collected at the start of the test and days 4, 7 and 14 after the start of the test in the case of the C57BL/ksj-db/db mice, and at the start of the test and on days 4, 7, 14 and 28 after the start of the test in the case of the KKAy mice. Blood samples were collected from the tail vein in an amount equal to one heparinized capillary tube.
(§3) Pravastatin powder was added to the F2 powder to 0.03% and 0.06% (wt/wt), uniformly mixed and provided to the animals in individual cages. The amount of feed and general behaviour were checked at least once a day.
(§4) Blood glucose levels were measured on the days when blood samples were collected.

The test system of test [2] is 3T3-L1 adipocytes. Kind of test: Glucose uptake enhancing action (in vitro), 3H-2-deoxyglucose uptake in 3T3-L1 adipocytes. The class given is cell-based. To be noted: 10 μM test compound for 72 hours, insulin added, P<0.001.
Procedure: Preadipocyte cell line 3T3-L1 was purchased from the American Type Culture Collection (ATCC). The 3T3-L1 cells were plated onto a 24-well, collagen-coated plate and cultured to saturation in growth medium (DMEM, 25 mM glucose, 10% FCS, 100 u/ml penicillin, 0.1 mg/ml streptomycin) under conditions of 37° C. and 5% CO2. Five days after cell proliferation had reached a saturated state, the medium was replaced with medium (DMEM, 25 mM glucose, 10% FCS, 100 u/ml penicillin, 0.1 mg/ml streptomycin) to which had been added 1 μM insulin, 0.5 mM 3-isobutyl-1-methylxanthine and 1 μM dexamethazone to initiate adipocyte differentiation. Two days later, the medium was replaced with growth medium containing 1 μM insulin followed by additionally culturing the cells for 2 days. Subsequently, the medium was replaced with fresh growth medium every 3 days, and the 3T3-L1 adipocytes were prepared on day 10 after the start of differentiation. […]
Measurement of glucose uptake was carried out in the manner described below. […] 160 μl of the cell lysate were mixed with 4 ml of Hionic Fluor (Perkin-Elmer) liquid scintillation counter cocktail followed by measurement of the radioactivity in the cell lysate with a liquid scintillation counter (Packard). The determined radioactivity of the ^3H-labeled was used as an indicator of the amount of glucose taken up into the cells.
Test [3] deals with KKAy mice. Kind of test: Blood glucose levels after administration of pravastatin in feed, KKAy mice. The format is in vivo, mouse. To be noted: pravastatin mixed in feed (0.03% and 0.06% wt/wt), dose group, non-dose group 521 mg/dl. On the procedure: as §1, §2, §3, §4
Test [4] concerns C57BL/ksj-db/db mouse adipocytes. Briefly: Glucose uptake test using isolated adipocytes from pravastatin-dosed C57BL/ksj-db/db mice. The format is in vivo. To be noted: isolated epididymal adipocytes from C57BL/ksj-db/db mice dosed with pravastatin for 1 week, insulin, 3H-2-deoxyglucose. The method, then: (§5) • (i) Epididymal adipose tissue was excised from a group administered with pravastatin for 1 week and a non-dosed group of C57BL/ksj-db/db mice (n=5). The excised adipose tissue was handled under conditions of 37° C. at all times. The adipose tissue was cut into small pieces with a scissors, followed by the addition of medium (DMEM, 1 mM sodium pyruvate, 25 mM HEPES pH 7.4, 0.1% BSA, 100 u/ml penicillin, 0.1 mg/ml streptomycin) containing 1 mg/ml of collagenase I (Worshington), and shaking at 37° C. and 80 rpm. Following the reaction, 2.5 volumes of the aforementioned medium were added, the adipocytes were screened out by passing the cell suspension through a 260 μm mesh sieve, and again passed through a 100 μm mesh sieve to prepare an adipocyte suspension.
(§6) An adipocyte suspension was prepared for C57BL/6J mice (normal mice) in the same manner as described above. • (ii) The glucose uptake test was carried out in the manner as described below. […] After cutting out the oil layer of the upper layer containing adipocytes with a knife, it was transferred to a glass vial containing 4 ml of Hionic Fluor (Perkin-Elmer) liquid scintillation counter cocktail followed by measurement of specific radioactivity. The amount of measured radioactivity of the ^3H-2-deoxyglucose was used as an indicator of the amount of glucose taken up by the cells. […]

Test [5] deals with C57BL/ksj-db/db mice. Kind of test: Insulin tolerance test using pravastatin-dosed mice. The format is in vivo, mouse. As to conditions: pravastatin in feed for 2 weeks, 60 minutes after insulin 1 u/kg i.p., non-dose group 411 mg/dl. The method, then:
A group administered with pravastatin by mixing in feed for 2 weeks and a non-dosed group of C57BL/ksj-db/db mice (n=5) were fasted for 2 hours. After measuring the body weight of each animal, insulin (Humalin, Lilly) was administered intraperitoneally at 1 u/kg, and blood samples were collected from the tail vein immediately before the start of administration and at 30, 60, 90 and 120 minutes after the start of administration followed by measurement of blood glucose levels.

The test system of test [6] is C57BL/ksj-db/db mice. Kind of test: Glucose tolerance test using pravastatin-dosed mice. The format is in vivo, mouse. To be noted: pravastatin in feed for 2 weeks, 60 minutes after administration (glucose 2 g/kg i.p.), non-dose group 517 mg/dl. On the procedure: A group administered with pravastatin by mixing in feed for 2 weeks and a non-dosed group of C57BL/ksj-db/db mice (n=5) were fasted for 16 hours starting on the day before the start of the test. After measuring the body weight of each animal, glucose solution ([…]) was administered intraperitoneally to 2 g/kg, and blood samples were collected from the tail vein immediately before the start of administration and at 30, 60, 90 and 120 minutes after the start of administration followed by measurement of blood glucose levels.

The subject of test [7] is C57BL/6J mouse adipocytes. Briefly: Glucose uptake test using isolated adipocytes from pravastatin-dosed C57BL/6J mice. The class given is in vivo. As to conditions: isolated adipocytes from pravastatin-dosed C57BL/6J mice (normal mice), insulin, 3H-2-deoxyglucose. The method, then:
as §5, §6

Consider `CC[C@H](C)C(=O)O[C@H]1C[C@H](O)C=C2C=C[C@H](C)[C@H](CC[C@@H](O)C[C@@H](O)CC(=O)O)[C@H]21` [pravastatin, (+)-(3R,5R)-3,5-dihydroxy-7-[(1S,2S,6S,8S,8aR)-6-hydroxy-2-methyl-8-[(S)-2-methylbutyryloxy]-1,2,6,7,8,8a-hexahydro-1-naphthyl]heptanoic acid], for which the blood glucose level in test [1] was determined as 438 mg/dL; in test [3], 351 mg/dL. The “amount of glucose uptake into the cells relative to control group” value in test [2] is 1.9 times. Further, the “amount of glucose uptake by dose group relative to non-dose group” value in test [4] is recorded as 2.0 times; in test [7], 1.4 times. Moreover, the “blood glucose level in insulin tolerance test” value in test [5] was 324 mg/dL. The “blood glucose level in glucose tolerance test” value in test [6] was 342 mg/dL.
